Publication PMC5840262, “Design, Synthesis and Evaluation of Branched RRWQWR-Based Peptides as Antibacterial Agents Against Clinically Relevant Gram-Positive and Gram-Negative Pathogens” (Frontiers in Microbiology, 2018)
“And” between values parts separate entries of the source, which are not always exact repeats. Identical values can stand only once. Like-named read-outs stand apart in the source and are kept apart here. One block for each substance: values may come before it. Ends that are not written are not given here.

Key:
[1] = test system: Enterococcus faecalis ATCC 29212 (sensitive); assay type: cell-based
Experimental: (§1) We screened all five peptides against the ATCC reference strains and the clinical isolates according to Method M7-A7 of the National Committee for Clinical Laboratory Standards (CLSI, [2007]). The MIC50 and MBC values were determined using a broth microdilution and growth inhibition method previously reported by Leon-Calvijo et al. ([2015]), with some modifications (Wiegand et al., [2008]). Briefly, the MIC50 experiments comprised a liquid-inhibition growth assay in a sterile, untreated, 96-well flat-bottom tissue culture plate. The bacteria were cultured overnight n Mueller Hinton agar; three colonies were transferred to 8 mL of Mueller Hilton broth and incubated at 37°C until the mid-exponential phase of growth. The turbidity of the cultures was measured and adjusted spectrophotometrically to a McFarland standard of 0.5, and then diluted to a final concentration of 5 × 10^7 colony forming units (CFU) per well. Stock solutions (2,000 μM) of each test peptide were serially diluted to final concentrations (per well) of 200, 100, 50, 25, 12.5, and 6.25 μM. Each concentration was evaluated in duplicate and each assay was performed in triplicate.
(§2) Wells containing Mueller Hilton broth with bacterial inoculum only served as bacterial-growth controls. Additional controls included Mueller Hilton broth alone (as blank) and Mueller Hilton broth with ciprofloxacin (2 μg/mL; as positive control). The microplate was incubated for 24 h at 37°C, and growth inhibition was measured by monitoring the optical density at 620 nm (OD620). The MIC50 was defined as the peptide concentration at which bacterial growth was inhibited by 50%.
(§3) To determine the MBC, an aliquot from each well of the MIC50 assay was spread onto Mueller Hilton agar. After 18 h at 37°C, the concentration that inhibited bacterial growth was determined. Each of these tests was performed four times. MBC was defined as the lowest concentration of peptide at which the number of bacteria was reduced by 99.9% in vitro (European Committee for Antimicrobial Susceptibility Testing, [2000]).

[2] = test system: Enterococcus faecalis ATCC 51575 (resistant); assay type: cell-based
Experimental: as §1, §2, §3

[3] = test system: Pseudomonas aeruginosa ATCC 10145 (sensitive); assay type: cell-based
Experimental: as §1, §2, §3

[4] = test system: Pseudomonas aeruginosa ATCC 27853 (resistant); assay type: cell-based
Experimental: as §1, §2, §3

[5] = test system: Enterococcus faecium clinical isolate 1,040; assay type: cell-based
Experimental: (§4) For the clinical isolates, we used 20 different isolates from the Public Health Reference Laboratory collection of the Secretaría de Salud del Distrito (SdSD; Bogotá, Colombia). The samples were collected from June to December 2016. For each isolate, the patient parameters (age, gender and location) and the culture site were recorded for epidemiologic monitoring (Table 1). All isolates had been previously tested for antibiotic sensitivity at the Public Health Microbiology Laboratory using either the Phoenix™ system (Gram-positive) or the VITEK 2 system (Gram-negative).
as §1, §2, §3

[6] = test system: Klebsiella pneumoniae clinical isolate 51,048; assay type: cell-based
Experimental: as §4, §1, §2, §3

[7] = test system: Pseudomonas aeruginosa clinical isolate 48,458; assay type: cell-based
Experimental: as §4, §1, §2, §3

[8] = test system: Staphylococcus aureus clinical isolate 48,575; assay type: cell-based
Experimental: as §4, §1, §2, §3

[9] = test system: Staphylococcus aureus clinical isolate 48,577; assay type: cell-based
Experimental: as §4, §1, §2, §3

[10] = test system: human erythrocytes; test: Hemolytic activity; assay type: cell-based
Experimental: Human erythrocytes collected from the blood samples of healthy humans were harvested by centrifugation for 7 min at 162 × g and washed three times in phosphate-buffered saline (PBS). The erythrocytes (2% hematocrit in PBS) were incubated with peptide molecules at several concentrations (6.25, 12.5, 25, 50, and 100 μM) for 2 h at 37°C. PBS was used as negative control for hemolysis, and sterile distilled water was used as positive control (100% hemolysis). The plate was subsequently centrifuged at 1,459 × g for 10 min at 4°C. Aliquots of the supernatant from each well (75 μL) were carefully transferred to a new sterile 96-well plate, and hemolytic activity was evaluated by measuring the OD492 using an Asys Expert Plus Microplate reader. The experiments were performed in duplicate, and hemolytic activity was calculated for each peptide.

[11] = test system: Gram-negative ATCC strains (K. pneumoniae 13883 and 700603, P. aeruginosa 10145 and 27853)
Excerpt: We determined the therapeutic index of each peptide, which we defined as the ratio of Maximum Hemolytic Activity (Hmax) to MIC50 (Hmax/MIC50).
The therapeutic index (TI) is a ratio of the toxic dose of a substance to its therapeutically-active dose and can be calculated different ways (e.g., LD50/ED50). Here, we calculated a TI value for each peptide against all the Gram-positive or the Gram-negative ATCC strains, by dividing its Hmax by its MIC50 for the given group of strains. […] Additionally, to make our quantitative analysis more robust [geometric mean (Khachatryan et al., [2017]) and fold values], we have included MIC50 values for these peptides against S. aureus and K. pneumoniae that we previously obtained using the same assay, the M7-A7 method of the National Committee for Clinical Laboratory Standards (Leon-Calvijo et al., [2015]).

- MIC50 ([1]; ATCC 29212, 24 h): 25.6 µM
- MIC50 ([2]; ATCC 51575, 24 h): >200.0 µM
- MIC50 ([3]; ATCC 10145, 24 h): 99.7 µM
- MIC50 ([4]; ATCC 27853, 24 h): 107.2 µM
- MIC50 ([5]; clinical isolate 1,040, 24 h): >100 µM
- MIC50 ([6]; clinical isolate 51,048, 24 h): 11.7 µM
- MIC50 ([7]; clinical isolate 48,458, 24 h): >100 µM
- MIC50 ([8]; clinical isolate 48,575, 24 h): 36.5 µM
- Gm, geometric mean of MIC50 values [11]: 54.1
Substance: RWQWRWQWR [PLS]
- MBC ([1]; ATCC 29212, 18 h): 100.0 µM
- MBC ([2]; ATCC 51575, 18 h): >200.0 µM
- MBC ([3]; ATCC 10145, 18 h): >200.0 µM
- MBC ([4]; ATCC 27853, 18 h): >200.0 µM
- MBC ([5]; clinical isolate 1,040, 18 h): >100 µM
- MBC ([6]; clinical isolate 51,048, 18 h): >100 µM
- MBC ([7]; clinical isolate 48,458, 18 h): >100 µM
- MBC ([8]; clinical isolate 48,575, 18 h): 100.0 µM
- MBC ([9]; clinical isolate 48,577, 18 h): 100.0 µM
- H50, concentration of peptide leading to 50% hemolysis ([10]; red cells of human, 2 h): >100 µM

Substance: RRWQWR-NH2 [LfcinB (20–25), reference compound]
- MBC ([1]; E. faecalis ATCC 29212 sensitive, aliquots of MIC50 wells on Mueller Hinton agar, 18 h 37°C, 99.9% reduction): >200.0 µM
- MIC50 ([1]; E. faecalis ATCC 29212 sensitive, broth microdilution, Mueller Hinton broth, 24 h 37°C, OD620, concentration inhibiting growth by 50%): >200.0 µM
- MIC50 ([2]; E. faecalis ATCC 51575 resistant, broth microdilution, 24 h 37°C, OD620, 50% growth inhibition): 198.0 µM
- MBC ([2]; E. faecalis ATCC 51575 resistant, plated on Mueller Hinton agar, 18 h 37°C, 99.9% reduction): >200.0 µM
- MIC50 ([3]; P. aeruginosa ATCC 10145 sensitive, broth microdilution, 24 h 37°C, OD620, 50% growth inhibition): >200.0 µM
- MBC ([3]; P. aeruginosa ATCC 10145 sensitive, plated on Mueller Hinton agar, 18 h 37°C, 99.9% reduction): >200.0 µM
- MIC50 ([4]; P. aeruginosa ATCC 27853 resistant, broth microdilution, 24 h 37°C, OD620, 50% growth inhibition): >200.0 µM
- MBC ([4]; P. aeruginosa ATCC 27853 resistant, plated on Mueller Hinton agar, 18 h 37°C, 99.9% reduction): >200.0 µM
- MIC50 ([5]; E. faecium isolate 1,040, broth microdilution, 24 h 37°C, OD620, 50% growth inhibition): >100 µM
- MBC ([5]; E. faecium isolate 1,040, plated on agar 18 h 37°C, 99.9% reduction): >100 µM
- MIC50 ([6]; K. pneumoniae isolate 51,048, broth microdilution, 24 h 37°C, OD620, 50% growth inhibition): >100 µM
- MBC ([6]; K. pneumoniae isolate 51,048, plated on agar 18 h 37°C, 99.9% reduction): >100 µM
- MIC50 ([7]; P. aeruginosa isolate 48,458, broth microdilution, 24 h 37°C, OD620, 50% growth inhibition): >100 µM
- MBC ([7]; P. aeruginosa isolate 48,458, plated on agar 18 h 37°C, 99.9% reduction): >100 µM
- MIC50 ([8]; S. aureus isolate 48,575, broth microdilution, 24 h 37°C, OD620, 50% growth inhibition): 3.7 µM
- MBC ([8]; S. aureus isolate 48,575, plated on agar 18 h 37°C, 99.9% reduction): >100 µM
- MIC50 ([9]; S. aureus isolate 48,577, broth microdilution, 24 h 37°C, OD620, 50% growth inhibition): 3.7 µM
- MBC ([9]; S. aureus isolate 48,577, plated on agar 18 h 37°C, 99.9% reduction): >100 µM
- Hmax, maximum hemolytic activity ([10]; human red blood cells, 2% hematocrit in PBS, 2 h 37°C, OD492, peptide 6.25-100 μM, concentration of the maximum in the column beside, duplicate): 7.1%
- H50, concentration of peptide leading to 50% hemolysis ([10]; human red blood cells, 2 h 37°C, highest concentration tested 100 μM): >100 µM
- Peptide concentration corresponding to Hmax ([10]; human red blood cells, 2 h 37°C, used as MHC in the therapeutic index): 25 µM and 25.0 µM
